{"source": "paper PMC8588536", "about": "“Iridal-Type Triterpenoids Displaying Human Neutrophil Elastase Inhibition and Anti-Inflammatory Effects from Belamcanda chinensis” (Molecules, 2021)", "test_system": "NF-κB p65 in LPS-stimulated RAW264.7 cells", "test": "NF-κB p65 nuclear translocation, Western blot of nuclear and cytoplasmic fractions", "format": "cell-based, mouse", "details": "1 and 3 µg/mL, n = 3, p < 0.05", "procedure": "RAW264.7 cells were homogenized in a hypotonic lysis buffer and centrifuged at 142× g for 5 min at 4 °C. The resulting pellets and supernatants were used for the isolation of nuclear and cytosoplasmic fraction, respectively. The pellets were incubated on ice for 5 min with a nuclear isolation buffer and were spun at 142× g using Eppendorf centrifuge 5424 R at 4 °C for 5 min. The resulting pellets were incubated on ice for 30 min with 2% Triton nuclear isolation buffer and were spun at 12,448× g at 4 °C for 15 min. For the cytosolic fraction, the resulting supernatants in the hypotonic lysis buffer were transferred to a new 1.5 mL tube and spun at 15,401× g for 15 min at 4 °C. The resulting supernatants were centrifuged at 100,000× g at 4 °C for 60 min in an ultracentrifuge (TLA 100.3; Optima MAX-XP, Beckman Coulter, Inc., Brea, CA, USA). The proteins of nuclear and cytosolic fractions were separated on 8% SDS-PAGE gel and blotted onto polyvinylidene difluoride membranes. Equal amounts of 35 µg were analyzed by Western blotting. Briefly, the membranes were blocked with 5% fat-free dry milk and then incubated with the anti-NF-κB p65 polyclonal antibody (1:1000 dilution; Cell Signaling Technology), and anti-β-actin monoclonal antibodies (1:5000 dilution). […]", "data": [{"compound": "CC(C)=CCCC(C)=CCC(O)C(C)=CCCC1(C)C(CCCO)C(=C(C)C=O)CCC1(C)O", "note": "(stereo not shown) [Compound 2, iridobelamal A]", "values": [{"measurement": "nuclear translocation of p65 protein (Western blot)", "result": "inhibited"}]}]}
